Results on 90 compounds are retold here after the Bradley open melting point set (2014).

Several values for one entry are separate records, joined by “and”; a condition that tells them apart may be missing. Identical values can stand only once.

For `CCCCCC(=O)OC` [Methyl hexanoate], the melting point is -71 °C.
Compound `OC(C(F)(F)F)C(F)(F)F` [1,1,1,3,3,3-hexafluoro-2-propanol] registered a melting point of -3 °C.
In turn, `NC(=O)NCc1ccccc1` [benzylurea] came in with a melting point of 149 °C.
In the case of `Oc1c(Cl)c(Cl)c(Cl)c(Cl)c1Cl` [Pentachlorophenol], the melting point turned out to be 190 °C.
In turn, `Cc1ccc(N)cc1N` [2,4-diaminotoluene] gave a melting point of 99 °C.
As to `O=[N+]([O-])c1cccc(F)c1O` [2-fluoro-6-nitrophenol], the melting point came out at 93 °C.
`CCOB(OCC)OCC` [triethyl borate] gave a melting point of -85 °C.
For `O=C(/C=C/OC(=O)c1ccccc1)CCc1ccccc1` [(1E)-3-oxo-5-phenylpent-1-en-1-yl benzoate] the value was 100 °C.
The compound `CC(=O)C=Cc1ccc([N+](=O)[O-])o1` [3-Buten-2-one, 4- (5-nitro-2-furanyl)-] displayed a melting point of 194 °C.
In the case of `COc1cccc(C=O)c1O` [o-vanillin], the melting point came out at 44.5 °C.
For `O=C(O)c1ccc([N+](=O)[O-])c(O)c1` [3-hydroxy-4-nitrobenzoic acid] the value was 234 °C; for `CC12CCC(C(O)=C/C1=N\Nc1ccccc1)C2(C)C` (stereo not given), 182 °C.
For `CC(=O)c1ccc(O)cc1` [4-hydroxyacetophenone] the value was 108 °C; for `CCCC(C)Br` (stereo not given) [2-bromopentane], -96 °C; for `CCCCC(CC)C(=O)O` (stereo not given) [2-ethylhexanoic acid], -59 °C.
`COc1ccc(C(=O)CCC(=O)O)cc1OC` [3-(3,4-dimethoxybenzoyl)propionic acid] came in with a melting point of 160 °C.
With `N=C(N)NCC1COc2ccccc2O1` (stereo not given) [guanoxan], the melting point came out at 164 °C.
As to `COC(=O)[C@H](C)O` [methyl (S)-lactate], the melting point was -44 °C.
The compound `Cc1cc(C)cc(C=O)c1` [3,5-dimethylbenzaldehyde] displayed a melting point of 9 °C.
For `Nc1ccccc1F` [2-Fluoroaniline], the melting point is -34.6 °C.
For `N#Cc1ccccc1O` [2-cyanophenol] the value was 94 °C; for `Cc1ccc[nH]c1=O` [3-methyl-2-pyridone], 140 °C.
For `O=[N+]([O-])c1c(Cl)c(Cl)c(Cl)c(Cl)c1Cl` [pentachloronitrobenzene], the melting point was 144 °C.
Consider `O=C(c1ccccc1)c1cccs1` [Phenyl(2-thienyl)methanone], for which the melting point was 57 °C.
Compound `c1ccc(CCc2ccccc2)cc1` [1,2-Diphenylethane] displayed a melting point of 51.5 °C.
In turn, `O=S(=O)(Cl)c1ccccc1` [benzenesulfonyl chloride] had a melting point of 15 °C.
Compound `CCCCC(C)CC` (stereo not given) [3-methylheptane] gave a melting point of -121 °C.
As for `Cc1cccc(C(=O)CC#N)c1` [m-toluoylacetonitrile], the melting point stood at 73 °C.
`O=C(O)c1cc([N+](=O)[O-])ccc1Cl` [2-chloro-5-nitrobenzoic acid]: the melting point came to 166 °C.
For the compound `CC(=O)Oc1ccccc1O` [catechol_monoacetate_(ortho)], the melting point was 57 °C.
To `c1ccc(-c2nc3ccccc3nc2-c2ccc3ccccc3c2)cc1` [2-naphthalen-2-yl-3-phenylquinoxaline] belongs 122 °C; to `N#Cc1ccc(Cl)cc1` [4-chlorobenzonitrile], 92 °C.
The compound `N#Cc1ccc(N=C=S)cc1` [4-cyanophenyl isothiocyanate] showed a melting point of 120 °C.
To `c1ccc2ccccc2c1` [Naphthalene] belongs 77 °C; to `NC(=O)c1sccc1N` [3-aminothiophene-2-carboxamide], 121 °C.
In turn, `CC(=O)O[C@@H]1CCC2(C)C(CCC3C2CCC2(C)C3CC[C@]2(O)/C=C/c2ccccc2)C1` (stereo not given in full) came in with a melting point of 162 °C.
For `[2H]C([2H])([2H])C([2H])([2H])C([2H])([2H])C([2H])([2H])C([2H])([2H])C([2H])([2H])C([2H])([2H])C([2H])([2H])C([2H])([2H])[2H]` [(~2~H_20_)Nonane] the value was -53 °C; for `COc1ccc(Cl)cc1C(=O)NCCc1ccc(S(=O)(=O)NC(=O)NC2CCCCC2)cc1` [Glibenclamide], 170 °C; for `Nc1ccc(C(=O)O)cc1` [4-Aminobenzoic acid], 188 °C.
In turn, `O=C(O)c1ccccc1OP(=O)(O)O` [fosfosal] displayed a melting point of 168 °C.
For `CC(C)(C)NCC(O)COc1cccc2c1C[C@H](O)[C@H](O)C2` (stereo not given in full) [nadolol] the value was 125 °C.
For `COC(=O)c1ccc(Cl)cc1` [methyl_4-chlorobenzoate] the value was 44 °C; for `C[C@H](CCC(=O)O)[C@H]1CC[C@H]2[C@@H]3[C@H](O)C[C@@H]4C[C@H](O)CC[C@]4(C)[C@H]3C[C@H](O)[C@]12C` [cholic acid], 201 °C.
To `CC(C)(C)c1cc(N)n[nH]1` [3-amino-5-tert-butyl-1h-pyrazole] belongs 77 °C; to `O=C1C[C@@H]2OCC=C3CN4CC[C@]56c7ccccc7N1[C@H]5[C@H]2[C@H]3C[C@H]46` [strychnine], 280 °C.
`CCc1c(C)[nH]c2ccc(N(C)C)cc12` [medmain]: the melting point came out at 100 °C.
Compound `Clc1ccc(C(Cn2ccnc2)OCc2csc3c(Cl)cccc23)c(Cl)c1` (stereo not given) [sertaconazole] gave a melting point of 146 °C.
Regarding `C=CCO` [allyl alcohol], the melting point is -129 °C.
`C/C=C\CC` [cis-2-pentene] came in with a melting point of -151 °C.
Take `Sc1ccccc1S` [1,2-benzenedithiol]: the melting point worked out at 23 °C.
In turn, `O=c1[nH]c(=O)n([C@@H]2O[C@H](CO)[C@@H](O)[C@H]2O)cc1Br` [5-bromouridine] had a melting point of 192 °C.
The compound `COC(=O)c1cccc(N)c1` [methyl 3-aminobenzoate] came in with a melting point of 51 °C.
Compound `CCCCCCCCCCO` [Decan-1-ol] registered a melting point of 7 °C.
For the compound `c1ccc(COc2cccc(-c3nnn[nH]3)c2)cc1` [5-(3-benzyloxyphenyl)-1h-tetrazole], the melting point was 209 °C.
`O=C1CCCC1` [Cyclopentanone] came in with a melting point of -51 °C.
`COC1=CC(=O)CC(C)C12Oc1c(Cl)c(OC)cc(OC)c1C2=O` (stereo not given) returned a melting point of 219 °C.
With `CCC1(C2=CCCCCC2)C(=O)NC(=O)NC1=O` [heptabarbital], the melting point is 174 °C.
Consider `OB(O)c1cccc(OCc2ccccc2)c1` [3-benzyloxybenzeneboronic acid], for which the melting point amounted to 123 °C.
For `COC(=O)c1ccc(N)cc1` [Methyl 4-aminobenzoate], the melting point worked out at 114 °C.
Compound `O=C(CC(=O)C(F)(F)F)c1cccs1` [1-(2-thenoyl)-3,3,3-trifluoroacetone] came in with a melting point of 43 °C.
Turning to `Oc1ccc(Cl)c(Cl)c1` [3,4-dichlorophenol], the melting point is 68 °C and 66 °C.
Compound `CN1CCN(C2=Nc3cc(Cl)ccc3Nc3ccccc32)CC1` [clozapine] gave a melting point of 184 °C.
For `O=C(O)c1cccc(Br)c1` [m-bromobenzoic acid] the value was 157 °C; for `O=Cc1ccc(B(O)O)cc1Cl` [3-chloro-4-formylbenzeneboronic acid], 212 °C.
For `Cc1cc(=O)oc2cc(O)ccc12` [7-Hydroxy-4-methyl-2H-chromen-2-one] the value was 191 °C; for `CC(C(=O)O)c1ccc(-c2ccccc2)c(F)c1` (stereo not given) [Flurbiprofen], 110 °C; for `Cc1noc(C)c1B(O)O` [3,5-dimethylisoxazole-4-boronic acid], 107 °C.
`CN[C@@H](C)[C@H](O)c1ccccc1` [ephedrine] yielded a melting point of 34 °C.
`NNC(=O)c1ccncc1` [Isoniazid]: the melting point stood at 171 °C.
`O=C(O)c1cccc2ccccc12` [1-Naphthoic acid] displayed a melting point of 162 °C.
In turn, `OCc1ccccc1-c1ccccc1` [2-biphenylmethanol] yielded a melting point of 49 °C.
As to `O=C(O)C=CC(=O)O` [maleic acid], the melting point came out at 134 °C.
In the case of `C[C@]12CC[C@@H]3c4ccc(O)cc4CC[C@H]3[C@@H]1C[C@@H](O)[C@@H]2O` [Estriol], the melting point was determined as 282 °C.
With `COc1ccc2c(c1)[C@@]13CCCC[C@@H]1[C@@H](C2)N(C)CC3` [dextromorphan], the melting point was determined as 110 °C.
As to `C=CCCl` [allyl chloride], the melting point is -135 °C.
For `CCC1=C(/C=N/Nc2ccc([N+](=O)[O-])cc2[N+](=O)[O-])CCCC1` the value was 194 °C.
`CCc1nc(N)nc(Cl)c1C` [4-chloro-6-ethyl-5-methylpyrimidin-2-amine] displayed a melting point of 139 °C.
To `CC(=O)OC1CCC2(C)C3CCC4=C(CCC4(C)C#CCl)C3CCC2(C)C1` (stereo not given) [17-(chloroethynyl)-5,10,17-trimethylgon-13-en-3-yl acetate] belongs 110 °C.
For `ON=Cc1ccc(O)cc1` [p-Hydroxybenzaldehyde oxime] the value was 112 °C; for `CC1CCc2cc(F)cc3c(=O)c(C(=O)O)cn1c23` (stereo not given) [flumequine], 253 °C; for `C=CCCCC` [Hex-1-ene], -140 °C.
Regarding `Cc1noc(NS(=O)(=O)c2ccc(N)cc2)c1C` [Sulfisoxazole], the melting point turned out to be 194 °C.
Take `c1ccc(-c2ccc(-c3ccccc3)cc2)cc1` [1,1':4',1''-Terphenyl]: the melting point worked out at 213 °C.
Take `Nc1ccc(O)cc1` [4-Aminophenol]: the melting point worked out at 189 °C.
As to `O=C(O)c1cccc([N+](=O)[O-])c1C(=O)O` [3-nitrophthalic acid], the melting point came out at 212 °C.
`C1CCC(C2CCCCC2)CC1` [bicyclohexyl] showed a melting point of 4 °C.
For `CC(C)[C@H](N)C(=O)O` [L-valine] the value was 315 °C.
In turn, `CC(C)NCC1CCc2cc(CO)c([N+](=O)[O-])cc2N1` (stereo not given) [oxamniquine] showed a melting point of 148 °C.
To `CCC1(CC)C(=O)NC(=O)NC1=O` [barbital] belongs 190 °C; to `COC(C)(C)C` [tert-butyl methyl ether], -109 °C.
